Patent publication US8003649B2 (AstraZeneca AB, priority 2007, dated 2011)

Tests used:
[1] = target: T1, rat GST-tagged AR-LBD (Rattus norvegicus, UniProt P15207); assay: LanthaScreen TR-FRET AR Binding Assay; settings: n = 2; 12-point concentration response up to 100 μM
T1 construct: purchased Invitrogen
T1 sequence (P15207 651-882 limits assumed): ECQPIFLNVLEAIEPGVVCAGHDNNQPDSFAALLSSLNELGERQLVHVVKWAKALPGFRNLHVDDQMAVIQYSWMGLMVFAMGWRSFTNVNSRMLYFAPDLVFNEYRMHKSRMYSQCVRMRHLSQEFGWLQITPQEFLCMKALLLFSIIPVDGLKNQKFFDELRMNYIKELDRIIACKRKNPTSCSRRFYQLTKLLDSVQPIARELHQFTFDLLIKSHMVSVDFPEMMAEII
Description: The ability of compounds to bind to isolated Androgen Receptor Ligand binding domain (AR-LBD) was assessed in competition assays using either a Fluorescence Polarisation (FP) or a LanthaScreen™ Time-Resolved Fluorescence Resonance Energy Transfer (TR-FRET) detection end-point.
For LanthaScreen™ TR-FRET, a suitable fluorophore (Product code PV4294) and rat GST-tagged AR-LBD were purchased from Invitrogen and used to measure compound binding. The assay principle is that AR-LBD is added to a fluorescent ligand to form a receptor/fluorophore complex. A terbium-labelled anti-GST antibody is used to indirectly label the receptor by binding to a GST tag, and competitive binding is detected by a test compounds' ability to displace the fluorescent ligand resulting in a loss of TR-FRET signal between the Tb-anti-GST antibody and the tracer. The assay was performed as follows with all reagent additions carried out using the Thermo Scientific Matrix PlateMate:— • 1. […]
Compounds were dosed directly from a compound source microplate containing serially diluted compound (4 wells containing 10 mM, 0.1 mM, 1 μM and 10 nM final compound respectively) to an assay microplate using the Labcyte Echo 550. […] Competitive AR binding was expressed as an IC50 value. This was determined by calculation of the concentration of compound that was required to give a 50% reduction in tracer compound binding to AR-LBD.

[2] = target: T2, Androgen Receptor (AR) (Homo sapiens, UniProt P10275, T878A); assay: LNCaP Androgen Receptor Down-regulation Cell Assay (immunofluorescence end point); type: cell-based; settings: LNCaP prostate carcinoma cells, compound incubation 20-22 hours, 50% reduction of the AR signal; read-out: Androgen Receptor Down-regulation Assay (a) IC50/μM
T2 construct: cell based immuno-fluorescence assay using the LNCaP prostate epithelial cell line; endogenous in cells; host or cells: LNCaP clone FGC (ATCC CRL-1740)
T2 sequence (P10275 1-920 T878A): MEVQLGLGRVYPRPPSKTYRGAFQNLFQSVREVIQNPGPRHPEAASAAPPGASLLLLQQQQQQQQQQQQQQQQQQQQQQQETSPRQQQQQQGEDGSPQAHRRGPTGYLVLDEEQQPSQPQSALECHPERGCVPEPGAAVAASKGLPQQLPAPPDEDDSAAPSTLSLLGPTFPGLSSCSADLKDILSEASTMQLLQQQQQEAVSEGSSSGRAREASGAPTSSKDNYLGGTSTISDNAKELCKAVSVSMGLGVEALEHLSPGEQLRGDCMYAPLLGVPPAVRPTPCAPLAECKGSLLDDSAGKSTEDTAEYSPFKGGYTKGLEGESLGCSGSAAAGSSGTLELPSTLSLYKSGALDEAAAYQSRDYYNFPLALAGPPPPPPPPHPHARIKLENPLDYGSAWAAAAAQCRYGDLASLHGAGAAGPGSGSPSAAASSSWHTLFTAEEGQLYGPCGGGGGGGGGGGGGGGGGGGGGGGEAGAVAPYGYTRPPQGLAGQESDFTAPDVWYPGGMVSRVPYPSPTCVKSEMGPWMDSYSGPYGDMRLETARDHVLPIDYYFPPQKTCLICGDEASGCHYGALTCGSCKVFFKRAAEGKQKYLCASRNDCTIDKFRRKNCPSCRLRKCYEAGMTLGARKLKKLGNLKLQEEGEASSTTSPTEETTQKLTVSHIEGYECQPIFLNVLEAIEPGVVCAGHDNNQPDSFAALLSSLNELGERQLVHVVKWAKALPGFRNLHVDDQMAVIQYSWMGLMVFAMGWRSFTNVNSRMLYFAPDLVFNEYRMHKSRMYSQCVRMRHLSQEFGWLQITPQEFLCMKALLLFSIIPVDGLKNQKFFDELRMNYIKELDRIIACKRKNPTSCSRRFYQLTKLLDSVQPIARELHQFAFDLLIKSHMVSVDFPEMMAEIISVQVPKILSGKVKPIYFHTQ
Method in brief: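 LNCaP cells in medium with 5% charcoal-stripped FBS were plated overnight, then treated with a compound dilution series for 20-22 h at 37° C. After fixation, permeabilisation and immunostaining, AR-associated green fluorescence was quantified by laser-scanning microplate cytometry; AR down-regulation expressed as IC50 from fitted dose-response curves.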

Structure (SMILES)	IC50 [1]	DC50 [2]
OC1(c2cccnc2)CCN(c2ccc3nnc(C(F)(F)F)n3n2)CC1 [Example 511, 4-pyridin-3-yl-1-[3-(trifluoromethyl)[1,2,4]triazolo[4,3-b]pyridazin-6-yl]piperidin-4-ol]	> 100 µM	–
Cn1nccc1CCOc1ccc(C2CCN(c3ccc4nnc(C(F)(F)F)n4n3)CC2)cc1 [Example 513, 6-[4-[4-[2-(1-methyl-1H-pyrazol-5-yl)ethoxy]phenyl]piperidin-1-yl]-3-(trifluoromethyl)[1,2,4]triazolo[4,3-b]pyridazine]	1.3 µM	0.24 µM
